Converted amounts (≈) assume the structure as drawn.
Key:
Test in all cases: minimum inhibitory concentration, agar dilution assay
Type in all cases: cell-based
[1] = system: Alcaligenes faecalis A 1; details: A1, agar dilution, 35° C., 20 hours, read-out: minimum inhibitory concentration
Protocol: (§1) The antibiotic activities shown in Tables I-1 to I-8 above were determined in the following manner.
(§2) The minimum inhibitory concentrations of the compounds of formula (I-a-1) or (I-b-1) in Tables I-1 to I-7 and the known compounds in Table I-8 on the various microorganisms shown in the above tables were measured by an agar dilution assay method using a brain heart infusion agar medium "Difco" (a product of Difco Laboratories Inc.)
(§3) A sample of the test compound was dissolved in sterile distilled water and diluted to prepare a two-fold dilution series of the compound solution. In a petri plate of 9 cm diameter, 1 ml of the compound solution was added to 9 ml of molten sterile heart infusion agar medium (Difco Laboratories Inc.) at about 60° C. to prepare the compound-containing agar plate. An overnight culture of each test organism indicated in the above table which was prepared by stationary cultivation in Trypto-Soy broth (Eiken Chemi. Co., Ltd.) at 35° C. for 18 to 20 hours, was diluted with the Trypto-Soy broth to give approximately 10^8 cells/ml and the diluted inoculum was inoculated onto the compound-containing agar plates. After cultivating the plates at 35° C. for 20 hours, the growth of the organism was observed. The minimum concentration of the compound at which no growth of the microorganism was noted was determined, and defined as the minimum inhibitory concentration of the test compound.

[2] = system: Bacillus subtilis ATCC 6633; details: ATCC6633, agar dilution, 35° C., 20 hours, read-out: minimum inhibitory concentration
Protocol: as §1, §2, §3

[3] = system: Citrobacter freundii GN 346; details: GN346, agar dilution, 35° C., 20 hours, read-out: minimum inhibitory concentration
Protocol: as §1, §2, §3

[4] = system: Comamonas terrigena B-996; details: B996, agar dilution, 35° C., 20 hours, read-out: minimum inhibitory concentration
Protocol: as §1, §2, §3

[5] = system: Enterobacter aerogenes E19; details: Klebsiella aerogenes, E19; agar dilution, 35° C., 20 hours; read-out: minimum inhibitory concentration
Protocol: as §1, §2, §3

[6] = system: Enterobacter cloacae 45; details: Enterobacter cloacae, 45; agar dilution, 35° C., 20 hours; read-out: minimum inhibitory concentration
Protocol: as §1, §2, §3

[7] = system: Enterobacter sp. E8; details: SP.E8, agar dilution, 35° C., 20 hours, read-out: minimum inhibitory concentration
Protocol: as §1, §2, §3

[8] = system: Escherichia coli K-12; details: K12, agar dilution, 35° C., 20 hours, read-out: minimum inhibitory concentration
Protocol: as §1, §2, §3

[9] = system: Escherichia coli RGN 823; details: RGN823, agar dilution, 35° C., 20 hours, read-out: minimum inhibitory concentration
Protocol: as §1, §2, §3

[10] = system: Klebsiella pneumoniae K-13; details: K13, agar dilution, 35° C., 20 hours, read-out: minimum inhibitory concentration
Protocol: as §1, §2, §3

[11] = system: Proteus mirabilis P6; details: P6, agar dilution, 35° C., 20 hours, read-out: minimum inhibitory concentration
Protocol: as §1, §2, §3

[12] = system: Proteus rettgeri P7; details: Providencia rettgeri, P7; agar dilution, 35° C., 20 hours; read-out: minimum inhibitory concentration
Protocol: as §1, §2, §3

[13] = system: Proteus sp. P22; details: agar dilution, 35° C., 20 hours; read-out: minimum inhibitory concentration
Protocol: as §1, §2, §3

[14] = system: Proteus vulgaris GN76; details: GN76, agar dilution, 35° C., 20 hours, read-out: minimum inhibitory concentration
Protocol: as §1, §2, §3

[15] = system: Providencia sp. P8; details: SP.P8, agar dilution, 35° C., 20 hours, read-out: minimum inhibitory concentration
Protocol: as §1, §2, §3

[16] = system: Pseudomonas aeruginosa IFO3445; details: IFO3445, agar dilution, 35° C., 20 hours, read-out: minimum inhibitory concentration
Protocol: as §1, §2, §3

[17] = system: Pseudomonas aeruginosa NCTC10490; details: NCTC10490, agar dilution, 35° C., 20 hours, read-out: minimum inhibitory concentration
Protocol: as §1, §2, §3

[18] = system: Sarcina lutea; details: Micrococcus luteus; agar dilution, 35° C., 20 hours; read-out: minimum inhibitory concentration
Protocol: as §1, §2, §3

[19] = system: Serratia marcescens S18; details: S18, agar dilution, 35° C., 20 hours, read-out: minimum inhibitory concentration
Protocol: as §1, §2, §3

[20] = system: Serratia marcescens T55; details: T55, agar dilution, 35° C., 20 hours, read-out: minimum inhibitory concentration
Protocol: as §1, §2, §3

[21] = system: Staphylococcus aureus FDA 209P; details: FDA209P, agar dilution, 35° C., 20 hours, read-out: minimum inhibitory concentration
Protocol: as §1, §2, §3

[22] = system: Staphylococcus aureus Russell; details: agar dilution, 35° C., 20 hours, read-out: minimum inhibitory concentration
Protocol: as §1, §2, §3

[23] = system: Staphylococcus aureus Smith; details: agar dilution, 35° C., 20 hours, read-out: minimum inhibitory concentration
Protocol: as §1, §2, §3

[24] = system: Staphylococcus epidermidis; details: agar dilution, 35° C., 20 hours, read-out: minimum inhibitory concentration
Protocol: as §1, §2, §3

| MIC [1] [µg/mL] | MIC [2] [µg/mL] | MIC [3] [µg/mL] | MIC [4] [µg/mL] | MIC [5] [µg/mL] | MIC [6] [µg/mL] | MIC [7] [µg/mL] | MIC [8] [µg/mL] | MIC [9] [µg/mL] | MIC [10] [µg/mL] | MIC [11] [µg/mL] | MIC [12] [µg/mL] | MIC [13] [µg/mL] | MIC [14] [µg/mL] | MIC [15] [µg/mL] | MIC [16] [µg/mL] | MIC [17] [µg/mL] | MIC [18] [µg/mL] | MIC [19] [µg/mL] | MIC [20] [µg/mL] | Structure (SMILES) | also measured |
| --- | --- | --- | --- | --- | --- | --- | --- | --- | --- | --- | --- | --- | --- | --- | --- | --- | --- | --- | --- | --- | --- |
| 1.56 (≈ 5.11 µM) | 0.013 (≈ 0.0426 µM) | 100 (≈ 327 µM) | < 0.007 | 12.5 (≈ 40.9 µM) | 12.5 (≈ 40.9 µM) | 3.13 (≈ 10.3 µM) | 3.13 (≈ 10.3 µM) | 25 (≈ 81.9 µM) | > 100 | 12.5 (≈ 40.9 µM) | 100 (≈ 327 µM) | > 100 | > 100 | 3.13 (≈ 10.3 µM) | 50 (≈ 164 µM) | 50 (≈ 164 µM) | < 0.007 | 100 (≈ 327 µM) | 100 (≈ 327 µM) | CC(O)C1C(=O)N2C(C(=O)O)=C(Sc3ccccc3)CC12 (stereo not drawn) | MIC [21]: < 0.007 µg/mL; MIC [22]: 0.013 µg/mL (≈ 0.0426 µM); MIC [23]: 0.1 µg/mL (≈ 0.327 µM); MIC [24]: 0.013 µg/mL (≈ 0.0426 µM) |
| 1.56 | 0.1 | 3.13 | 0.025 | 3.13 | 6.25 | 3.13 | 3.13 | 12.5 | 12.5 | 12.5 | 12.5 | 50 | 25 | 3.13 | 12.5 | 12.5 | 0.1 | 6.25 | 12.5 | CCC1C(=O)N2C(C(=O)O)=C(SCCO)CC12 (stereo not drawn) [R1 H, R21 --CH2 CH2 OH, sodium 3-(2-hydroxyethylthio)-6-ethyl-7-oxo-1-azabicylo[3.2.0]hept-2-ene-2-carboxylate] | MIC [21]: 0.05 µg/mL; MIC [22]: 0.2 µg/mL; MIC [23]: 0.1 µg/mL; MIC [24]: 0.2 µg/mL |
| 0.78 (≈ 2.55 µM) | 0.78 (≈ 2.55 µM) | 100 (≈ 326 µM) | 0.2 (≈ 0.653 µM) | > 100 | 100 (≈ 326 µM) | 25 (≈ 81.6 µM) | 6.25 (≈ 20.4 µM) | 12.5 (≈ 40.8 µM) | 50 (≈ 163 µM) | 12.5 (≈ 40.8 µM) | 25 (≈ 81.6 µM) | 12.5 (≈ 40.8 µM) | 25 (≈ 81.6 µM) | 3.13 (≈ 10.2 µM) | 12.5 (≈ 40.8 µM) | 25 (≈ 81.6 µM) | 0.013 (≈ 0.0424 µM) | 50 (≈ 163 µM) | 100 (≈ 326 µM) | CC(O)[C@H]1C(=O)N2C(C(=O)O)=C(Sc3ccccn3)C[C@H]12 (stereo partly drawn) | MIC [21]: 0.05 µg/mL (≈ 0.163 µM); MIC [22]: 0.39 µg/mL (≈ 1.27 µM); MIC [23]: 0.39 µg/mL (≈ 1.27 µM); MIC [24]: 1.56 µg/mL (≈ 5.09 µM) |

| Structure (SMILES) | MIC [1] [µg/mL] | MIC [2] [µg/mL] | MIC [3] [µg/mL] | MIC [4] [µg/mL] | MIC [5] [µg/mL] | MIC [6] [µg/mL] | MIC [7] [µg/mL] | MIC [8] [µg/mL] | MIC [9] [µg/mL] | MIC [10] [µg/mL] | MIC [11] [µg/mL] | MIC [12] [µg/mL] | MIC [13] [µg/mL] | MIC [14] [µg/mL] | MIC [15] [µg/mL] | MIC [16] [µg/mL] | MIC [17] [µg/mL] | MIC [18] [µg/mL] | MIC [19] [µg/mL] | MIC [20] [µg/mL] | also measured |
| --- | --- | --- | --- | --- | --- | --- | --- | --- | --- | --- | --- | --- | --- | --- | --- | --- | --- | --- | --- | --- | --- |
| CC(=O)NCCSC1=C(C(=O)O)N2C(=O)C(C(C)O)C2C1 (stereo not drawn) [PS-3B, 3-(2-acetamidoethylthio)-6-(1-hydroxyethyl)-7-oxo-1-azabicyclo[3.2.0]hept-2-ene-2-carboxylic acid, reference compound] | 0.07 (≈ 0.223 µM) | 0.004 (≈ 0.0127 µM) | 0.53 (≈ 1.69 µM) | 0.001 (≈ 0.00318 µM) | 0.27 (≈ 0.859 µM) | 1.06 (≈ 3.37 µM) | 0.07 (≈ 0.223 µM) | 0.07 (≈ 0.223 µM) | 1.06 (≈ 3.37 µM) | 8.5 (≈ 27 µM) | 0.53 (≈ 1.69 µM) | 17 (≈ 54.1 µM) | 17 (≈ 54.1 µM) | 8.5 (≈ 27 µM) | 0.27 (≈ 0.859 µM) | 17 (≈ 54.1 µM) | 34 (≈ 108 µM) | 0.004 (≈ 0.0127 µM) | 2.13 (≈ 6.78 µM) | 2.13 (≈ 6.78 µM) | MIC [21]: 0.07 µg/mL (≈ 0.223 µM); MIC [22]: 0.13 µg/mL (≈ 0.414 µM); MIC [23]: 0.13 µg/mL (≈ 0.414 µM); MIC [24]: 0.07 µg/mL (≈ 0.223 µM) |

Source: patent US4337199A, “Antibiotic β-lactam compounds, production thereof, and their use as antimicrobial agent” (Sanraku-Ocean Co., Ltd., priority 1978, dated 1982)
